Measured values: article PMC8692993, “PPARα and PPARγ activation is associated with pleural mesothelioma invasion but therapeutic inhibition is ineffective” (iScience, 2021)

Assays:
AE17 = assay: MTT cell metabolic activity assay, AE17; format: cell-based, mouse; conditions: AE17, 48 h, 0.391-100 μM; effect at higher micromolar concentrations
Protocol: Cells were harvested and seeded in 96-flat well plates (Corning) at a density of 5 x 10^4 cells/mL overnight. Media was removed and 100 μL media with GW6471 or GW9662 at indicated concentrations was added to each well. Cell viability and toxicity were measured at 48 h. Cells were incubated with 50 μL of a 2 mg/mL solution of (3-(4,5-dimethyl-thiazole-2-yl)-2,5-[…] tetrazolium (MTT, Sigma-Aldrich) in PBS for 4 h and then exposed to 100 μL dimethyl sulfoxide (DMSO; Sigma-Aldrich). Cell viability was measured by absorption at 570 nm in a microplate spectrophotometer (Spectromax 250 plate reader). Results are shown as relative cell viability.

renal cell carcinoma = test system: renal cell carcinoma; design: method as in Abu Aboud et al., 2015; conditions: 20 mg/kg; ref Abu Aboud et al., 2015; cited from earlier work
[1] = Mouse pharmacokinetic study, plasma exposure after IP dosing; format: in vivo, BALB/c mice; conditions: IP 10 mg/kg; for Cmax / Plasma AUC0–24 h: female BALB/c mice
Protocol: Pharmacokinetic animal studies were conducted using established procedures in accordance with the Australian Code of Practice for the Care and Use of Animals for Scientific Purposes, and the study protocols were reviewed and approved by the Monash Institute of Pharmaceutical Sciences Animal Ethics Committee. The systemic exposure of GW6471 was studied in non-fasted female BALB/c mice (5 - 8 weeks) weighing 15.2–22.6 g. Mice had access to food and water ad libitum throughout the pre- and post-dose sampling period. GW6471 (10 mg/kg) was dosed to all mice via a single intraperitoneal (IP) injection (5 mL/kg). For the ABT pre-treated group, ABT was pre-dosed to animals at 50 mg/kg via IP injection (5 mL/kg) 2 h prior to administration of GW6471. Following IP administration of GW6471, blood samples were collected up to 24 h at indicated time points (n = 3 mice per time point) with a maximum of three samples from each mouse. Blood samples were collected via submandibular bleed (approximately 120 μL) into polypropylene Eppendorf tubes containing heparin as anticoagulant and stabilisation cocktail (containing the protease inhibitor cocktail Complete® and KF) to minimise the potential for ex vivo compound degradation in blood/plasma samples. Once collected, blood samples were centrifuged immediately, supernatant plasma was removed, and stored at−80°C until analysis by liquid chromatography-mass spectrometry (LC–MS). The plasma concentration versus time profile was defined by the average plasma concentration at each sample time, and PK parameters were calculated using non-compartmental methods (PKSolver Version 2.0).
Compound quantification was performed using a Xevo G2 QTOF (in vitro metabolic stability) using positive electrospray ionisation under MS^E mode or a Waters Xevo TQD (mouse exposure) mass spectrometer using positive electrospray ionisation multiple-reaction monitoring mode. Compounds were eluted using an acetonitrile-water/0.05% formic acid gradient at a flow rate of 0.4 mL/min operating over a 4 min cycle on a Waters Acquity UPLC using a Supelco Ascentis Express RP C8 column (50 × 2.1 mm, 2.7 μm). Extraction was performed by precipitation using acetonitrile (1:1 volume ratio for microsomes and 2:1 volume ratio for plasma samples) followed by centrifugation. Compound concentrations were quantified against calibration standards prepared in an appropriate matrix to match the test samples (e.g. plasma or microsomes).
ABT Formulation: On the evening prior to dosing, ABT was dissolved in a 0.9% (w/v) saline using vortexing and sonicating, resulting in a colourless solution. The nominal concentration of ABT in the formulation was 10 mg/mL. GW6471 Formulation: The final drug contains 40% final volume of PEG400 (Kollisolv PEG E 400, Sigma Aldrich), and 60% final volume of Solutol HS-15 (Kolliphor HS-15, Sigma Aldrich). Solutol is previously mixed in a saline solution (12.5% concentration). On the day of dosing, the solid GW6471 was first dissolved in PEG400by thoroughly vortexing and sonicating for 5 min. Then, the saline solution containing Solutol HS-15 12.5% was added. Again, the formulation was then thoroughly vortexed and sonicated to produce a hazy pale yellow suspension with an apparent pH of 3.4. The nominal concentration of GW6471 in the formulation was 2 mg/mL. […] The dose administered to each mouse was calculated on the basis of the mouse body weight (determined prior to dosing).

[2] = test system: HAP1, HAP1 PPARA KO, and HAP1 PPARG KO cell lines; assay: Scratch wound migration assay, HAP1 lines; format: cell-based, human; conditions: 1 and 10 μM
Protocol: Cells were harvested and seeded in Incucyte®ImageLock 96-well plates (Essen BioScience) at a density of 10 x 10^4 cells/mL overnight. A scratch wound was performed on the confluent cells with the 96-pin IncuCyte WoundMaker Tool (Essen BioScience). For migration assays, cells were washed with PBS once before adding 100 μL media with GW6471 at indicated concentrations. For matrigel invasion assays, cells were washed with PBS once before adding 50 μL of matrigel basement membrane matrix (FAL356231; Corning, NY, USA) at 8 mg/mL; lastly 100 μL media with GW6471 at indicated concentrations were added on top of the matrigel. Wounded cells were incubated in the IncuCyte ZOOM® at 37°C with 5% CO2. Data were analysed using the Incucyte® Scratch Wound Cell Migration Software Module and calculating the Relative Wound Density (%) (RWD) for both migration and invasion assays.

[3] = ABT 50 mg/kg IP 2 h before (ABT + GW6471)

CCC(=O)NC[C@H](Cc1ccc(OCCc2nc(-c3ccccc3)oc2C)cc1)N/C(C)=C\C(=O)c1ccc(C(F)(F)F)cc1 [GW6471]
Cell viability (MTT) (AE17): lowered viability
Tumor reduction in vivo (renal cell carcinoma): significant tumor reduction
Increase of plasma concentration with ABT pre-treatment (based on AUC and Cmax) ([1]; ABT pre-treatment versus none): approximately 3 fold
Cmax [1, 3]: 3600 nM
Plasma AUC0–24 h [1, 3]: 31.4 h∗μM
Cmax ([1]; without ABT): 1180 nM
Plasma AUC0–24 h ([1]; without ABT): 9.81 h∗μM
Effect on migration compared between PPARA KO, PPARG KO and wild-type cells [2]: not significantly different
In vitro migration ([2]; HAP1 lines): concentration-dependent effect on in vitro migration
